In publication PMC12752606, “METTL10‐Mediated PIAS3 Methylation Links Purine Metabolism to Gastric Cancer Progression” (Advanced Science, 2025):

Key:
METTL10 = target: T1, METTL10 (Homo sapiens, UniProt Q5JPI9); test: MTase-Glo in vitro methylation assay, METTL10-mediated PIAS3 methylation; assay type: biochemical
T1 construct: His; made in house; host or cells: E. coli BL21
Method: For the in vitro methylation assay, His‐METTL10 (1 µg) was incubated with recombinant human Histone H4 protein (20 ng; Abcam, ab198115) or GST‐PIAS3 (100 ng) of in methylation reaction buffer (50 mM Tris‐HCl (pH 8.0), 20 mM KCl, 5 mM DTT, 4 mM EDTA) containing 20 µM S‐(5′‐adenosyl)‐L‐methionine chloride dihydrochloride (SAM) at 37 °C for 1 h. The reaction was terminated by boiling the samples in SDS‐PAGE loading buffer, and the products were analyzed by immunoblotting.
To identify METTL10 inhibitors, an in‐silico screening was first conducted on an in‐house compound library comprising approximately 6000 structurally diverse molecules. Molecular docking simulations with the METTL10 protein identified 111 candidate compounds for further analysis. The methyltransferase activity of these candidates was assessed using the MTase‐Glo Methyltransferase Assay (Promega, V7601) according to the manufacturer's protocol. Briefly, the candidate compounds were preincubated with His‐METTL10 protein (1 µg) at 37 °C for 1 h in a methylation reaction buffer (50 mM Tris‐HCl (pH 8.0), 20 mM KCl, 5 mM DTT, 4 mM EDTA, and 20 µM SAM), followed by the addition of either the Histone H4 or PIAS3 peptide substrate for an additional 1 h. The reaction was then subjected to MTase‐Glo reagent buffer for 30 min, followed by MTase‐Glo detection buffer for another 30 min. Luminescence was measured using a luminometer (Promega), and IC50 values were calculated using GraphPad Prism 8 software.

[1] = Acute toxicity, single intraperitoneal injection at escalating doses (LD50); details: ICR, mouse, in vivo, ip, ICR mice, 24 h survival
Method: For the acute toxic study, 8‐week‐old ICR mice (n = 6 per group) were administered a single intraperitoneal injection of LZQ‐02‐023‐01 at escalating doses. A vehicle‐treated group served as control. Survival was monitored continuously for 24 h postadministration. Additionally, another cohort of ICR mice (n = 5 per group) received a single intraperitoneal dose of LZQ‐02‐023‐01 at 125 mg/kg and were subsequently monitored daily for 7 days for clinical signs of toxicity, behavioral changes, body weight fluctuations, and mortality. At the conclusion of the observation period, animals were euthanized and subjected to a comprehensive gross necropsy. Major organs, including the liver, kidney, heart, lung, and spleen, were harvested for histopathological examination. For the chronic toxic study, 8‐week‐old ICR mice (n = 5 per group) received daily intraperitoneal injections of LZQ‐02‐023‐01 at a therapeutic dose of 40 mg/kg for 14 consecutive days. A vehicle‐treated group was included as a control. Throughout the treatment period, animals were monitored daily for clinical signs of toxicity and weighed every 2 days. At study termination, blood samples were collected for hematological and biochemical analyses. […]

ATK orthotopic tumors = test: Orthotopic ATK cell gastric cancer allograft model with flow cytometry of tumor-infiltrating cells; assay type: in vivo, C57BL/6 mice
Method: Orthotopic gastric cancer models were established by surgically implanting 1 × 10⁶ METTL10‐overexpressing or vector control ATK cells into the gastric subserosal layer of C57BL/6 mice under aseptic conditions. Tumor tissues were harvested 20 days post‐implantation for subsequent analyses. In a separate cohort, mice bearing orthotopic tumors (1 × 10⁶ cells implanted) received subcutaneous administration of LZQ‐02‐023‐01 at a dose of 40 mg/kg/day, starting 7 days after tumor implantation. The treatment continued daily for 14 consecutive days. Tumor burden and therapeutic response were assessed at the end of the treatment period by excision and analysis of gastric tumors.
Tumor tissues were finely minced into approximately 1 mm^3 pieces and enzymatically digested in Hank's Balanced Salt Solution (HBSS) containing type IV collagenase (2357210, Gibco) at 37 °C for 1 h. The resulting cell suspensions were gently triturated and passed through an 80 µm cell strainer (22131209, Biosharp) to remove debris. Red blood cells were lysed using ACK lysis buffer (R1010, Solarbio) to yield a single‐cell suspension. Cells were subsequently stained with a cocktail of fluorochrome‐conjugated antibodies (1:200 dilution; details listed in Table S6, Supporting Information) and a fixable viability dye (1:200, 2365395, Invitrogen) for 30 min at 4 °C in the dark. After washing, the stained cells were analyzed using a Sony ID7000 spectral flow cytometer (Sony Biotechnology).
Paraffin sections were initially placed in an oven at 65 °C for 30 min to melt the paraffin. The slides were then immersed in two consecutive xylene baths for 10 min each to dewax the tissue, followed by hydration through a series of graded ethanol solutions. The sections were stained with hematoxylin for 10 min. After differentiation with 1% hydrochloric acid alcohol, the sections were blued with lithium carbonate and counterstained with eosin for 3 min. The slides were then dehydrated in graded ethanol and mounted with neutral resin. All pathological results were performed in a blinded manner by experienced gastrointestinal pathologists. For IHC staining, sections were processed in accordance with the manufacturer's protocol (MXB Biotechnologies). Briefly, antigen retrieval was conducted at 37 °C for 30 min, followed by blocking at room temperature for 10 min. The sections were subsequently incubated with the appropriate primary antibody overnight at 4 °C. The following day, biotin‐conjugated secondary antibodies were applied and incubated for 1 h, followed by streptavidin‐peroxidase incubation for 10 min. Diaminobenzidine (DAB) was employed as the chromogen for visualization, and hematoxylin was used for counterstaining. Imaging was performed using the Olympus VS200 microscope.

[2] = 40 mg/kg/day for 14 days, flow cytometry

T1 sequence (Q5JPI9 1-291 isoform Q5JPI9-1): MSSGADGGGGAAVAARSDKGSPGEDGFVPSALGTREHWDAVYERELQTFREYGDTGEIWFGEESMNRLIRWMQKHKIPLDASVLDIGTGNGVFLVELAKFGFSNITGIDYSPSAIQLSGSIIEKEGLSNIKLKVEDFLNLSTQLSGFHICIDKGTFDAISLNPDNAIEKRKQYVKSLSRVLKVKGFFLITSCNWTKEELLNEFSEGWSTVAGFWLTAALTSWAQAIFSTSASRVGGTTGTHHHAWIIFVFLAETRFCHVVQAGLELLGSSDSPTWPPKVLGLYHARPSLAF

In the case of `Cc1ccc(Nc2ncc3c(n2)N(C)C(=O)N(c2cccc(N)c2)C3)cn1` [LZQ-02-023-01, Three‐(3‐aminophenyl)‐1‐methyl‐7‐((6‐methylpyridin‐3‐yl)amino)‐3,4‐dihydropyrimido [4,5‐d] pyrimidin‐2 (1H)‐one], the “Structure-activity relationship, rank among structural analogs” value (METTL10; METTL10 activity toward GST-PIAS3) is reported as “most potent inhibitor among its structural analogs”, the “Rank of potency among the 22 hit compounds” value (METTL10; METTL10 activity toward PIAS3) is reported as “strongest potency” and the IC50 (METTL10; MTase-Glo, bacteria-purified GST-PIAS3 substrate, read-out: IC50, inhibition of METTL10 activity toward PIAS3) is reported as 11.8 µM. For the same molecule, the LD50 at 24 h [1] was 213 mg/kg, the Tumor burden (ATK orthotopic tumors; 40 mg/kg/day for 14 consecutive days, ATK orthotopic model, vs vehicle) was “significant reduction in tumor burden” and the “Proliferative activity (Ki-67 expression) of tumors” value (ATK orthotopic tumors; 40 mg/kg/day for 14 days) was “reduced proliferative activity”. For the same molecule, the “Tumor-infiltrating B cells” value (ATK orthotopic tumors; [2]) was “modest decrease” and the “Tumor-infiltrating T lymphocytes (CD4+ and CD8+)” value (ATK orthotopic tumors; [2]) was “moderate increase”.
